Where two headings read alike, the source gives them in different places.
How the values were obtained:
[1] = system: BaF3-EGFR^WT cells; assay: BaF3 cell proliferation inhibition experiment (CCK-8); type: cell-based; conditions: Mus musculus, read-out: BaF3-EGFR^WT (IC50 nM)
Protocol: (§1) A. Cell line: BaF3 cells with stable overexpression of wild-type genes are named BaF3-EGFR^WT, and BaF3 cells with stable overexpression of EGFR^L858R/T790M/C797S EGFR^del19/T790M/C797S EGFR^L858R/C797S and EGFR^del19/C797S mutant genes are named BaF3-EGFR^L858R/T790M/C797S BaF3-EGFR^del19/T790M/C797S BaF3-EGFR^L858R/C797S and BaF3-EGFR^del19/C797S cells, respectively. Mediums:
(§2) a) The medium was preheated in a 37° C. water bath.
(§3) b) The cryopreservation tube was taken from the liquid nitrogen tank, quickly placed in a 37° C. water bath, and melted completely within 1 minute.
(§4) c) The cell suspension was transferred to a 15 mL centrifuge tube containing a 10 mL medium and centrifuged at 1000 rpm for 4 minutes.
(§5) d) The supernatant was discarded, the cells were resuspended in a 1 mL medium and transferred to a […] culture dish containing a 10 mL medium, 20% serum and 50 ng/mL EGF were administered to the first-generation medium, and culture was conducted in a 37° C. and 5% CO2 incubator.
(§6) b) The cells in the culture dish were blown evenly with a 5 mL pipette, and 500 μL of the cells were pipetted out to be inoculated into a new […] culture dish and cultured in a 37° C. and 5% CO2 incubator.
(§7) a) The compound to be tested (10 mM stock solution) was diluted with 100% DMSO to 1 mM, and diluted with a culture solution in a 24-well plate to prepare of a working solution of 2 μM concentration.
(§8) b) The 2 μM working solution was diluted with a triple dilution method to obtain working solutions with approximate concentrations of 2 μM, 600 nM, 200 nM, 60 nM, and 20 nM.
(§9) a) The cells at the logarithmic growth phase were centrifuged at 1000 rpm for 4 minutes, resuspended with a medium (containing 10% serum and 50 ng/mL EGF), and counted.
(§10) b) The cells were inoculated into a 96-well plate with a cell density of 4000 cells/well, and placed in a 37° C. and 5% CO2 incubator for culture for 12 hours.
(§11) a) The prepared compound was added to a 96-well plate, with 100 μL per well. The final concentrations were 1 μM, 300 nM, 100 nM, 30 nM, 10 nM, and 0 nM, and the final concentration of DMSO was 0.2%. A medium served as a blank control.
(§12) b) The cells were placed in 37° C. and 5% CO2 incubator for culture for 72 hours.
(§13) (5) Cell Viability Testing
(§14) a) The 96-well cell culture plate was taken out, and 20 μL of a CCK-8 reagent (Cell Counting Kit-8, Topscience, Catalog No. C0005) was added in the dark.
(§15) b) Mixing well was conducted on a horizontal shaking table at a room temperature at 100 rpm for 5 minutes.
(§16) c) The culture plate was placed in a 37° C. constant-temperature incubator for incubation.
(§17) The data was analyzed using GraphPad Prism 8.0 software to obtain a fitted curve of activity of the compounds. The IC50 of the compounds was fitted from nonlinear regression equation.

[2] = system: BaF3-EGFR^del19/T790M/C797S cells; assay: as above; type: cell-based; conditions: Ba/F3 EGFR-Del19/T790M/C797S, read-out: BaF3-EGFR^del19 /T790M/C797S (IC50 nM)
Protocol: as §1, §2, §3, §4, §5, §6, §7, §8, §9, §10, §11, §12, §13, §14, §15, §16, §17

[3] = system: A431 cells; assay: A431 cell proliferation inhibition (SRB); type: cell-based; conditions: Homo sapiens, A-431, wild-type EGFR, 72 hours
Protocol: A431 cell proliferation inhibition: The compounds of the present invention have good selectivity to wild-type EGFR
as §2, §3, §4, §5, §6, §7, §8, §9, §10, §11, §12, §13
a) The cell supernatant was discarded, rinsed once with 1×PBS, and fixed with 10% trichloroacetic acid for 1 hour. The trichloroacetic acid was discarded, excess trichloroacetic acid was washed off with tap water, and the 96-well plate was dried in a 60° C. oven.
b) 70 μL of an SRB stain was added to each well of the dry 96-well plate for staining at a room temperature for 30 minutes. Excess SRB stain was washed off with 1% glacial acetic acid, and the 96-well plate was dried in a 60° C. oven.
c) SRB was dissolved with 100 μL of 10 mM Tris-base solution. The absorbance was detected at 540 nm ultraviolet absorption using the microplate reader. The data was analyzed.
as §17

[4] = Stability testing of liver microsomes, monkey; type: in vitro ADME; conditions: for CLint scaled at 1 µM / half-life at 1 µM: pH 7.41, monkey liver microsomes
Protocol: (§18) 1. 100 mM K-buffer was preheated with 5 mM MgCl2 with a pH value of 7.41.
(§19) 2. Preparation of testing solution
(§20) 0.5 mM solution A: 5 μL of the 10 mM compound stock solution was added for reference to 95 μL of ACN.
(§21) 1.5 μM microsome solution (0.75 mg/mL): 1.5 μL of a 500 μM solution and 18.75 μL of 20 mg/mL liver microsomes were added to 479.75 μL of K/Mg-buffer.
(§22) 3. The K/Mg-buffer NADPH solution (6 mM, 5 mg/mL) was prepared.
(§23) 4. […] of human, monkey, and mouse liver microsomes with a 0.75 mg/mL concentration were added to detection plates at different time points (0, 15, 30, 45, and 60 minutes).
(§24) 5. Pre-incubation was conducted at 37° C. for 5 minutes.
(§25) 6. At 0 min, before 15 μL of the NADPH stock solution (6 mM) was added, 150 μL of ACN containing IS was added.
(§26) NADPH was dissolved in the K/mg buffer to prepare a 6 mm and 5 mg/mL NADPH stock solution.
(§27) 7. At other time points, 15 μL of the NADPH stock solution (6 mM) was added to the well for starting the reaction and timing.
(§28) 8. 150 μL of ACN containing IS was added to the corresponding plate wells at 15 min, 30 min, 45 min, and 60 min, respectively, and the reaction was stopped.
(§29) 9. After quenching, shaking well was conducted for 10 minutes (600 rpm), and centrifugation was conducted at 6000 rpm for 15 minutes.
(§30) 10. 80 μL of the supernatant in each well was transferred to a 96-well sample plate (containing 140 μL of pure water) for LC/MS analysis.

[5] = Stability testing of liver microsomes, human; type: in vitro ADME; conditions: for CLint scaled at 1 µM / half-life at 1 µM: pH 7.41, human liver microsomes
Protocol: as §18, §19, §20, §21, §22, §23, §24, §25, §26, §27, §28, §29, §30

[6] = system: BaF3-EGFR^L858R/C797S cells; assay: BaF3 cell proliferation inhibition experiment (CCK-8); type: cell-based; conditions: Ba/F3 EGFR-L858R, 72 h, read-out: BaF3-EGFR^L858R/C797S (IC50 nM)
Protocol: as §1, §2, §3, §4, §5, §6, §7, §8, §9, §10, §11, §12, §13, §14, §15, §16, §17

[7] = system: BaF3-EGFR^del19/C797S cells; assay: as above; type: cell-based; conditions: Mus musculus, BaF3, 72 h, read-out: BaF3-EGFR^del19 /C797S (IC50 nM)
Protocol: as §1, §2, §3, §4, §5, §6, §7, §8, §9, §10, §11, §12, §13, §14, §15, §16, §17

Row | IC50 ([1]; BaF3, cell proliferation, 72 hours) | IC50 ([2]; cell proliferation, 72 hours) | SMILES | IC50 [3] | CLint scaled at 1 µM [4] | half-life at 1 µM [4] | CLint scaled at 1 µM [5] | half-life at 1 µM [5] | IC50 ([1]; BaF3, 72 h) | IC50 ([2]; 72 h) | IC50 [6] | IC50 [7] | stability in liver microsomes (in words) ([4]; monkeys) | stability in liver microsomes (in words) ([5]; humans)
1 | 1570 nM | 66.3 nM | CCc1cc(Nc2ncc(Cl)c(Nc3ccc(C)c(C)c3P(C)(C)=O)n2)c(OC)cc1N1CCC(N2CCN(C)CC2)CC1 [Comparative Compound A, reference compound] | 0.207 µM | 3.12 L/h/kg | 26.7 min | 2.99 L/h/kg | 27.8 min | – | – | – | – | – | –
2 | – | – | CCc1cc(Nc2ncc(Cl)c(Nc3ccc(C)c(C)c3P(C)(C)=O)n2)c(OC)cc1N1CCC2(CC1)CC(N(C)C)C2 [Compound 6, (6-((5-chloro-2-((4-(2-(dimethylamino)-7-azaspiro[3.5]nonan-7-yl)-5-ethyl-2-methoxyphenyl)amino)pyrimidin-4-yl)amino)-2,3-dimethylphenyl)dimethylphosphine oxide] | > 1 µM | – | – | – | – | – | – | – | – | – | –
3 | – | – | CCc1cc(Nc2ncc(Cl)c(Nc3ccc(C)c(C)c3P(C)(C)=O)n2)c(OC)cc1N1CC2(CCN(C)CC2)C1 [Compound 24, (6-((5-Chloro-2-((5-ethyl-2-methoxy-4-(7-methyl-2,7-diazaspiro[3.5]non-2-yl)phenyl)amino)pyrimidin-4-yl)amino)-2,3-dimethylphenyl)dimethylphosphine oxide] | > 1 µM | 1.66 L/h/kg | 50 min | < 0.576 L/h/kg | > 145 min | 5770 nM | 128 nM | 158 nM | 202 nM | good stability | good stability
4 | – | – | CCc1cc(Nc2ncc(Cl)c(Nc3ccc(C)c(C)c3P(C)(C)=O)n2)c(OC)cc1N1CCC(N2C[C@H]3CC[C@@H](C2)N3C)CC1 [Compound 51, (6-((5-chloro-2-((5-ethyl-2-methoxy-4-(4-((1R,5S)-8-methyl-3,8-diazabicyclo[3.2.1]octan-3-yl)piperidin-1-yl)phenyl)amino)pyrimidin-4-yl)amino)-2,3-dimethylphenyl)dimethylphosphine oxide] | 0.745 µM | – | – | – | – | 1180 nM | 29.9 nM | 116 nM | 146 nM | – | –

Source: patent publication US20250101052A1, “COMPOUND FOR EGFR KINASE INHIBITOR, COMPOSITION, AND USE THEREOF” (INNOVATION INSTITUTE FOR ARTIFICIAL INTELLIGENCE IN …, priority 2021, published 2025)
